Laboratory results reported in US20110186457A1, “NOVEL SINGLE UNIT CARBAPENEM AMINOGLYCOSIDE FORMULATIONS” (priority 2008, published 2011).
Converted amounts (≈) assume the structure as drawn. “And” between values parts separate entries of the source, which are not always exact repeats. Identical values can stand only once. Like-named read-outs stand apart in the source and are kept apart here.

Tests used:
[1] = test system: renal tissue of Mus musculus mice; experiment: Oxidative stress and kidney toxicity markers in renal tissue after repeated antibiotic administration to mice; assay type: in vivo
P. vulgaris (426 MTCC) = experiment: Zone of inhibition; assay type: cell-based; design: unit not given here
From the text: (§1) Where X and Y are respective additive agents mixed in the formulation with water for injection.

S. aureus (737 MTCC) = experiment: Zone of inhibition; assay type: cell-based; design: unit not given here
From the text: as §1

E. coli (1687 MTCC) = experiment: Zone of inhibition; assay type: cell-based; design: unit not given here
From the text: as §1

C. braakii (2690 MTCC) = experiment: Zone of inhibition; assay type: cell-based; design: unit not given here
From the text: as §1

A. baumannii (1425 MTCC) = experiment: Zone of inhibition; assay type: cell-based; design: unit not given beside the values
From the text: as §1

[2] = test system: P. aeruginosa (1688 MTCC); experiment: Zone of inhibition; assay type: cell-based; design: unit not given beside the values
From the text: as §1

[3] = test system: K. pneumoniae (10031 ATCC); experiment: Zone of inhibition; assay type: cell-based; design: unit not given beside the values
From the text: as §1

[4] = test system: K. pneumoniae 10031(ATCC); experiment: In-vitro microbial efficacy (MIC); assay type: cell-based
C. braakii MTCC 2690 = experiment: In-vitro microbial efficacy (MIC); assay type: cell-based
N. mucosa MTCC 1722 = experiment: In-vitro microbial efficacy (MIC); assay type: cell-based
M. smegmatis MTCC 995 = experiment: In-vitro microbial efficacy (MIC); assay type: cell-based
E. coli MTCC 1687 = experiment: In-vitro microbial efficacy (MIC); assay type: cell-based
B. subtilis MTCC 736 = experiment: In-vitro microbial efficacy (MIC); assay type: cell-based
MRSA = experiment: In-vitro microbial efficacy (MIC); assay type: cell-based
E. cloacae MTCC 509 = experiment: In-vitro microbial efficacy (MIC); assay type: cell-based
P. vulgaris MTCC 426 = experiment: In-vitro microbial efficacy (MIC); assay type: cell-based
A. baumanii MTCC 1425 = experiment: In-vitro microbial efficacy (MIC); assay type: cell-based
S. aureus MTCC 737 = experiment: In-vitro microbial efficacy (MIC); assay type: cell-based
P. aeruginosa MTCC 1688 = experiment: In-vitro microbial efficacy (MIC); assay type: cell-based

## NCC[C@H](O)C(=O)N[C@@H]1C[C@H](N)[C@@H](O[C@H]2O[C@H](CN)[C@@H](O)[C@H](O)[C@H]2O)[C@H](O)[C@H]1O[C@H]1O[C@H](CO)[C@@H](O)[C@H](N)[C@H]1O [Amikacin]
[1]; mouse, in vivo
  Catalase activity in renal tissue: decrease
  Glutathione reductase activity in renal tissue: decrease
  MDA activity in renal tissue: increase
  SOD activity in renal tissue: decrease

## C[C@@H](O)[C@H]1C(=O)N2C(C(=O)O)=C(S[C@@H]3CN[C@H](C(=O)Nc4cccc(C(=O)O)c4)C3)[C@H](C)[C@H]12 [Ertapenem]
P. vulgaris (426 MTCC); drug concentration 0.005 mcg
  Zone of Inhibition: 9.54
P. vulgaris (426 MTCC); drug concentration 0.05 mcg
  Zone of Inhibition: 16.74
P. vulgaris (426 MTCC); drug concentration 0.5 mcg
  Zone of Inhibition: 18.50
S. aureus (737 MTCC); drug concentration 0.005 mcg
  Zone of Inhibition: 9.44
S. aureus (737 MTCC); drug concentration 0.05 mcg
  Zone of Inhibition: 14.55
S. aureus (737 MTCC); drug concentration 0.5 mcg
  Zone of Inhibition: 21.33
E. coli (1687 MTCC); drug concentration 0.005 mcg
  Zone of Inhibition: 10.10
E. coli (1687 MTCC); drug concentration 0.05 mcg
  Zone of Inhibition: 15.49
E. coli (1687 MTCC); drug concentration 0.5 mcg
  Zone of Inhibition: 21.45
E. coli (1687 MTCC); drug concentration 1.0 mcg
  Zone of Inhibition: 23.39
C. braakii (2690 MTCC); drug concentration 0.005 mcg
  Zone of Inhibition: 10.52
C. braakii (2690 MTCC); drug concentration 0.05 mcg
  Zone of Inhibition: 18.95
C. braakii (2690 MTCC); drug concentration 0.5 mcg
  Zone of Inhibition: 27.88
A. baumannii (1425 MTCC); drug concentration 0.005 mcg
  Zone of Inhibition: Nil
A. baumannii (1425 MTCC); drug concentration 0.05 mcg
  Zone of Inhibition: 13.37
A. baumannii (1425 MTCC); drug concentration 0.5 mcg
  Zone of Inhibition: 18.25
[2]; drug concentration 0.005 mcg
  Zone of Inhibition: Nil
[2]; drug concentration 0.05 mcg
  Zone of Inhibition: Nil
[2]; drug concentration 0.5 mcg
  Zone of Inhibition: Nil
[3]; drug concentration 0.005 mcg
  Zone of Inhibition: Nil
[3]; drug concentration 0.05 mcg
  Zone of Inhibition: Nil
[3]; drug concentration 0.5 mcg
  Zone of Inhibition: 15.90

## NC[C@H]1O[C@H](O[C@H]2[C@H](O)[C@@H](O[C@H]3O[C@H](CO)[C@@H](O)[C@H](N)[C@H]3O)[C@H](N)C[C@@H]2N)[C@H](N)C[C@@H]1O [Tobramycin]
[1]; mouse, in vivo
  Catalase activity in renal tissue: decrease
  Glutathione reductase activity in renal tissue: decrease
  MDA activity in renal tissue: increase
  SOD activity in renal tissue: decrease

## CCN[C@@H]1C[C@H](N)[C@@H](O[C@H]2O[C@H](CN)CC[C@H]2N)[C@H](O)[C@H]1O[C@H]1OC[C@](C)(O)[C@H](NC)[C@H]1O [Etimicin]
P. vulgaris (426 MTCC); drug concentration 0.005 mcg
  Zone of Inhibition: Nil
P. vulgaris (426 MTCC); drug concentration 0.05 mcg
  Zone of Inhibition: Nil
P. vulgaris (426 MTCC); drug concentration 0.5 mcg
  Zone of Inhibition: 15.19 and 13.97
S. aureus (737 MTCC); drug concentration 0.005 mcg
  Zone of Inhibition: Nil
S. aureus (737 MTCC); drug concentration 0.05 mcg
  Zone of Inhibition: 11.15 and 10.12
S. aureus (737 MTCC); drug concentration 0.5 mcg
  Zone of Inhibition: 17.50 and 16.65
E. coli (1687 MTCC); drug concentration 0.005 mcg
  Zone of Inhibition: Nil
E. coli (1687 MTCC); drug concentration 0.05 mcg
  Zone of Inhibition: 9.42 and 9.31
E. coli (1687 MTCC); drug concentration 0.5 mcg
  Zone of Inhibition: 16.50 and 15.70
E. coli (1687 MTCC); drug concentration 1.0 mcg
  Zone of Inhibition: 17.57
C. braakii (2690 MTCC); drug concentration 0.005 mcg
  Zone of Inhibition: Nil
C. braakii (2690 MTCC); drug concentration 0.05 mcg
  Zone of Inhibition: Nil
C. braakii (2690 MTCC); drug concentration 0.5 mcg
  Zone of Inhibition: 18.70 and 19.10
[4]
  MIC: 8 µg/mL (≈ 16.8 µM)
C. braakii MTCC 2690
  MIC: 2 µg/mL (≈ 4.19 µM)
N. mucosa MTCC 1722
  MIC: 1 µg/mL (≈ 2.09 µM)
M. smegmatis MTCC 995
  MIC: 2 µg/mL (≈ 4.19 µM)
E. coli MTCC 1687
  MIC: 0.125 µg/mL (≈ 0.262 µM)
A. baumannii (1425 MTCC); drug concentration 0.005 mcg
  Zone of Inhibition: Nil
A. baumannii (1425 MTCC); drug concentration 0.5 mcg
  Zone of Inhibition: 13.5 and 12.88
[2]; drug concentration 0.005 mcg
  Zone of Inhibition: Nil
[2]; drug concentration 0.05 mcg
  Zone of Inhibition: Nil
[2]; drug concentration 0.5 mcg
  Zone of Inhibition: 12.49 and 12.60
[3]; drug concentration 0.005 mcg
  Zone of Inhibition: nil and Nil
[3]; drug concentration 0.05 mcg
  Zone of Inhibition: nil and Nil
[3]; drug concentration 0.5 mcg
  Zone of Inhibition: 16.64 and 16.50
[1]; Mus musculus mice, repeated administration for 7 days consecutively (FIG. 5)
  Creatnine level in renal tissue: significantly decreased
[1]; mice, after administration of antibiotic (FIG. 1)
  SOD activity in renal tissue: decrease
[1]; mice, after administration of antibiotic (FIG. 2)
  Catalase activity in renal tissue: decrease
[1]; mice, after administration of antibiotic (FIG. 3)
  MDA activity in renal tissue: increase
[1]; mice, after administration of antibiotic (FIG. 4)
  Glutathione reductase activity in renal tissue: decrease
B. subtilis MTCC 736
  MIC: 8 µg/mL (≈ 16.8 µM)
MRSA
  MIC: 4 µg/mL (≈ 8.38 µM)
E. cloacae MTCC 509
  MIC: 2 µg/mL (≈ 4.19 µM)
P. vulgaris MTCC 426
  MIC: 4 µg/mL (≈ 8.38 µM)
A. baumanii MTCC 1425
  MIC: 2 µg/mL (≈ 4.19 µM)
S. aureus MTCC 737
  MIC: 8 µg/mL (≈ 16.8 µM)
P. aeruginosa MTCC 1688
  MIC: 8 µg/mL (≈ 16.8 µM)

## C[C@@H](O)[C@H]1C(=O)N2C(C(=O)O)=C(S[C@@H]3CN[C@H](C(=O)N(C)C)C3)[C@H](C)[C@H]12 [Meropenem]
P. vulgaris (426 MTCC); drug concentration 0.005 mcg
  Zone of Inhibition: 10.84
P. vulgaris (426 MTCC); drug concentration 0.05 mcg
  Zone of Inhibition: 18.01
P. vulgaris (426 MTCC); drug concentration 0.5 mcg
  Zone of Inhibition: 21.32
S. aureus (737 MTCC); drug concentration 0.005 mcg
  Zone of Inhibition: 11.45
S. aureus (737 MTCC); drug concentration 0.05 mcg
  Zone of Inhibition: 16.29
S. aureus (737 MTCC); drug concentration 0.5 mcg
  Zone of Inhibition: 22.76
E. coli (1687 MTCC); drug concentration 0.005 mcg
  Zone of Inhibition: 8.88
E. coli (1687 MTCC); drug concentration 0.05 mcg
  Zone of Inhibition: 15.70
E. coli (1687 MTCC); drug concentration 0.5 mcg
  Zone of Inhibition: 22.97
C. braakii (2690 MTCC); drug concentration 0.005 mcg
  Zone of Inhibition: 9.35
C. braakii (2690 MTCC); drug concentration 0.05 mcg
  Zone of Inhibition: 23.35
C. braakii (2690 MTCC); drug concentration 0.5 mcg
  Zone of Inhibition: 28.60
[4]; Klebsiella pneumoniae, read-out: MIC
  MIC: 1 µg/mL (≈ 2.61 µM)
C. braakii MTCC 2690; Citrobacter braakii, MTCC2690, read-out: MIC
  MIC: 0.25 µg/mL (≈ 0.652 µM)
N. mucosa MTCC 1722; read-out: MIC
  MIC: 0.125 µg/mL (≈ 0.326 µM)
M. smegmatis MTCC 995; Mycolicibacterium smegmatis, MTCC995, read-out: MIC
  MIC: 0.25 µg/mL (≈ 0.652 µM)
E. coli MTCC 1687; Escherichia coli, MTCC1687, read-out: MIC
  MIC: 0.0625 µg/mL (≈ 0.163 µM)
A. baumannii (1425 MTCC); drug concentration 0.005 mcg
  Zone of Inhibition: Nil
A. baumannii (1425 MTCC); drug concentration 0.05 mcg
  Zone of Inhibition: 14.50
A. baumannii (1425 MTCC); drug concentration 0.5 mcg
  Zone of Inhibition: 19.81
[2]; drug concentration 0.005 mcg
  Zone of Inhibition: Nil
[2]; drug concentration 0.05 mcg
  Zone of Inhibition: 13.64
[2]; drug concentration 0.5 mcg
  Zone of Inhibition: 21.85
[3]; drug concentration 0.005 mcg
  Zone of Inhibition: Nil
[3]; drug concentration 0.05 mcg
  Zone of Inhibition: 14.36
[3]; drug concentration 0.5 mcg
  Zone of Inhibition: 23.87
[1]; mouse, in vivo
  Catalase activity in renal tissue: decrease
  Glutathione reductase activity in renal tissue: decrease
  MDA activity in renal tissue: increase
  SOD activity in renal tissue: decrease
B. subtilis MTCC 736; Bacillus subtilis, MTCC736, read-out: MIC
  MIC: 2 µg/mL (≈ 5.22 µM)
MRSA; Staphylococcus aureus, read-out: MIC
  MIC: 0.5 µg/mL (≈ 1.3 µM)
E. cloacae MTCC 509; Enterobacter cloacae, MTCC509, read-out: MIC
  MIC: 0.125 µg/mL (≈ 0.326 µM)
P. vulgaris MTCC 426; Proteus vulgaris, MTCC426, read-out: MIC
  MIC: 0.0625 µg/mL (≈ 0.163 µM)
A. baumanii MTCC 1425; Acinetobacter baumannii, MTCC1425, read-out: MIC
  MIC: 0.125 µg/mL (≈ 0.326 µM)
S. aureus MTCC 737; Staphylococcus aureus, MTCC737, read-out: MIC
  MIC: 0.5 µg/mL (≈ 1.3 µM)
P. aeruginosa MTCC 1688; Pseudomonas aeruginosa, MTCC1688, read-out: MIC
  MIC: 2 µg/mL (≈ 5.22 µM)
